{"source": "patent US10548906B2", "about": "“Methods of promoting hepatic regeneration” (Intercept Pharmaceuticals, Inc., priority 2015, dated 2020)", "key": {"[1]": {"test_system": "Ki67-positive hepatocytes", "test": "Ki67 staining of liver sections, hepatocyte proliferation after PVE (Example 5)", "assay_type": "in vivo, rabbit", "protocol": "Liver tissue (left lateral and caudal lobes) was fixed in buffered formalin for 48 h, and subsequently dehydrated and embedded in paraffin. Four-micron sections of liver tissue were cut and stained with standard hematoxylin and eosin stain. Sections were scored for lobular and portal inflammation according to Table 1. Additionally, liver sections were stained with Ki67 antibodies to quantify hepatocyte proliferation, and hematoxylin counterstain as described in detail previously (van der Loos C M, et al. J Histochern Cytochern 2013; 61(1):11-8; Marsman H A, et al. Br J Surg 2013; 100(5):674-83). Ki67-positive hepatocytes were counted in a total of five high power fields per animal, by a hepatopathologist (JV) blinded to the group allocation. Liver histology was assessed at day 3 and 7 for n=6 per treatment group."}, "mice": {"test_system": "mice", "details": "2 years, 25 mg/kg; cited from earlier work"}, "[2]": {"test_system": "New Zealand White rabbits", "test": "Portal vein embolization (PVE) in rabbits, 6-ECDCA vs vehicle (Example 4)", "assay_type": "in vivo, rabbit", "description": "Female New Zealand White rabbits with a mean weight of 3.0±0.5 kg were acclimatized for 1 week under standardized laboratory conditions in a temperature-controlled room. The animals were individually housed, had free access to standard laboratory food and water, and were subjected to a 12-h light/dark cycle per day. The rabbits were divided into two groups receiving 6-ECDCA and two control groups receiving vehicle. Specifically, the PVE study rabbits were divided into following groups: • Group 1: Normal diet (6-ECDCA 10 mg/kg/day, oral gavage) (N=6), animals sacrificed at day 7, post PVE. • Group 2: Normal diet (Vehicle) (N=6), animals sacrificed at day 7 post PVE. • Group 3: Normal diet (6-ECDCA 10 mg/kg/day, oral gavage) (N=6), animals sacrificed at day 3, post PVE. • Group 4: Normal diet (Vehicle) (N=6), animals sacrificed at day 3, post PVE.\nThe rabbit liver consists of four liver lobes, three of which are positioned cranially, with the fourth located caudally. In the rabbit PVE model the cranial liver lobes, which account for approximately 80% of the total liver volume, were embolized. The rabbit was placed in a supine position after subcutaneous injection of 0.03 mg/kg buprenorphine and 0.02 mg/kg enrofloxacin. Rabbits were given enrofloxacin 0.02 mg/kg subcutaneously once a day for 3d postoperatively. Animals were anesthetized by intramuscular injection of 25.0 mg/kg ketamine and 0.2 mg/kg dexmedetomidine. Isoflurane 1%-2% with O2/air (1:0.7 L/min) was used to maintain anesthesia. Heart rate and arterial oxygen saturation were measured by pulse oximetry continuously throughout the procedure.\nTo identify the individual portal branches, portography was performed. After passing the portal branch to the caudal liver lobe, a microcatheter was positioned into the main portal branch supplying the cranial liver lobes. Animals received an initial mixture of contrast (Visipaque) and 90-180 μm polyvinyl alcohol (PVA) particles, followed by injection of 300-500 μm PVA particles until cessation of flow and placement of three platinum coils (6 mm). Portography directly after PVE confirmed total occlusion of the cranial portal blood flow in the embolization groups. The hypertrophy and atrophy responses of the caudal and cranial lobes were measured using CT volumetry before embolization and on day 3 and 7 post-embolization.\nMultiphasic CT scans were performed using a 64-slice CT scan (Brilliance 64-channel; Philips, Eindhoven, The Netherlands). Rabbits were placed in supine position. After a blank series, a contrast enhanced scan was performed 15 s (arterial phase), 30 s (portal phase), and 45 s (venous phase) after contrast injection (4 mL Visipaque), followed by 3 mL NaCl. 3D-reconstructions of the liver were made using reconstructed 2 mm axial slices. The total liver and the cranial and caudal liver lobes were manually delineated and total liver volume (TLV) and the caudal liver volume (CLV) and cranial liver volume (CrLV) were calculated.\nThe following measurements were carried out: (1) body weight, (2) computed tomography of the embolized and non-embolized lobes, (3) expression of cell cycle-related and bile salt homeostasis-related transcripts in the liver, (4) expression of ileal transcripts, and (5) serum total bile salt concentration.\nSerum bile salt concentration was determined at baseline, at 3 h, and at days 1, 3, and 7 post PVE. […]"}, "Wistar rats": {"test_system": "Wistar rats", "test": "Bile volume and HPLC bile acid analysis in rBDL rats prior to PHx (Example 6)", "assay_type": "in vivo, rat", "protocol": "At baseline (i.e., directly before PHx) and one to five days after PHx, animals were euthanized under isoflurane anesthesia by exsanguination. Blood samples were collected from the caval vein in heparin-anticoagulated vacutainers (BD, Franklin Lakes, N.J.) and centrifuged for 10 min (3000×g, 4° C.). In rBDL animals sacrificed at baseline, bile was aspirated with a syringe from the dilated extrahepatic bile duct, weighed, and stored at −80° C. The liver and ileum were excised, weighed, loafed, and either fixed in a 10% (vol/vol) neutralized formalin solution (J. T. Baker, Center Valley, Pa.), snap-frozen in liquid nitrogen and stored at −80° C., or collected in RNAlater (Qiagen, Venlo, the Netherlands) and stored at −20° C. Liver regrowth was calculated from the regenerated liver mass, and was expressed as percentage of total liver mass prior to PHx. The projected remnant liver mass was calculated using the weight of the resected liver segments, which represent 70% of the total liver mass. Dry liver weights were measured to correct for hepatic water content [Kloek 2010a].\nBile acids were separated and quantified by reverse-phase high-performance liquid chromatography (HPLC) [Lionarons 2016]. Bile or plasma samples (20 μL) were deproteinated by the addition of 5 volumes of acetonitrile. Following centrifugation (10 min at 20,000×g), solvent was evaporated from supernatants and bile salts were solubilized in 200 μL of 25% methanol. For liver homogenates, 100 mg liver tissue was sonicated for 30-90 s in 500 μL of water. One mL of acetonitrile was added for protein precipitation. Samples were subsequently centrifuged at 20,000×g for 10 min, after which the supernatant was used for analysis. Results were corrected for homogenate protein content. One hundred μL of sample was applied to a Hypersil C18 HPLC column (Thermo Scientific, Waltham, Mass.) operated at 20° C. […] Detection was done using a Nano Quantity Analyte Detector QT-500 (Quant Technologies, Blaine, Minn.). Bile acids were quantified using a separate calibration curve per species. […]"}, "[3]": {"details": "after seven days of OCA treatment"}}, "note": "Entries after “also recorded” stand apart in the source; their conditions may differ."}
{"smiles": "CC[C@H]1[C@@H](O)[C@@H]2[C@H](CC[C@]3(C)[C@@H]([C@H](C)CCC(=O)O)CC[C@@H]23)[C@@]2(C)CC[C@@H](O)C[C@@H]12", "note": "[Compound 1, 3α,7α-dihydroxy-6α-ethyl-5β-cholanic acid]", "values": [{"measurement": "number of Ki67-positive hepatocytes relative to vehicle", "setting": "[1]; 3 days after PVE", "result": 1.6, "unit": "fold"}, {"measurement": "Ki67-positive hepatocytes vs vehicle", "setting": "[1]; day +3", "result": "Increased numbers"}, {"measurement": "malignant transformation", "setting": "mice", "result": "does not lead to malignant transformation"}, {"measurement": "increase in caudal liver volume (CLV)", "setting": "[2]; CT, days 3 and 7 post embolization, FIG. 3", "result": "accelerates hypertrophy of the non-embolized lobe"}, {"measurement": "concentration of serum bile salts vs control", "setting": "[2]; day 1 post PVE, FIG. 8", "result": "relatively lower"}, {"measurement": "body weight, difference vs vehicle", "setting": "[2]; each day of the study, FIG. 2", "result": "not statistically significant"}, {"measurement": "decrease in cranial liver lobe volume (CrLV)", "setting": "[2]; embolized lobe, FIG. 5", "result": "does not affect atrophy of the embolized lobe"}, {"measurement": "liver regeneration and liver mass", "setting": "[2]; rabbit PVE model, 10 mg/kg/day oral gavage", "result": "accelerates liver regeneration and increases liver mass"}, {"measurement": "bile retrieved from the extrahepatic bile duct", "setting": "Wistar rats; [3]", "result": "substantial increase"}, {"measurement": "biliary BA output", "setting": "Wistar rats; [3]", "result": "elevated"}, {"measurement": "hepatic BA load / content", "setting": "Wistar rats; prior to PHx, rBDL, listed as OCA", "result": "reduction; also recorded: effectively counteracted"}]}
